Like-named read-outs stand apart in the source and are kept apart here.

Our source for the EC50 and IC50 values is patent US12559474B2, “Triazine derivatives having virus replication inhibitory activity and pharmaceutical composition comprising the same” (priority 2021, dated 2026).

For test [1], the system named is SARS-CoV-2. In words: microbe, parasite or virus in culture. In kind it is cell-based. The conditions noted are these: Severe acute respiratory syndrome coronavirus 2, VeroE6/TMPRSS2, 72 h, 50% SARS-CoV-2 infected cell death inhibitory concentration, VeroE6/TMPRSS2 cells, 3 days culture.
For test [2], the target named is SARS-CoV-2 3CL protease (Severe acute respiratory syndrome coronavirus 2, UniProt P0DTD1). As to the kind of experiment: biochemical. The settings on record: 50% SARS-CoV-2 3CL protease inhibitory concentration, read-out: IC50.

For `CNc1nc2cc(Cl)c(Nc3nc(=O)n(-c4cncc(Cl)c4)c(=O)n3Cc3cc(C#N)ccc3C)cc2o1` [II-0546], in test [1] (class symbols), the concentration for a half-maximal effect (EC50) is under 1 µM. Moreover, the concentration for half-maximal inhibition (IC50) in test [2] (given as class symbols) was under 0.1 µM.
Regarding `Cc1cncc(-n2c(=O)nc(Nc3ccc4nn(C)cc4c3)n(Cc3cc(F)c(F)c(C#N)c3)c2=O)c1` [II-0573], it took 0.34 µM to reach a half-maximal effect in test [1] (CellTiter-Glo 2.0) (EC50). In addition, the IC50 in test [2] (RapidFire MS) was 0.0061 µM.
`Cc1cncc(-n2c(=O)nc(Nc3cc4cn(CC(=O)N(C)C)nc4cc3Cl)n(Cc3cc(F)c(F)c(F)c3)c2=O)c1` [II-0281] gave a concentration giving a half-maximal response (EC50) in test [1] (class symbols) of 1 to 10 µM. Further, in test [2] (given as class symbols), the IC50 was under 0.1 µM.
With `CS(=O)(=O)c1ccc(Nc2nc(=O)n(Cc3ccc[nH]c3=O)c(=O)n2Cc2cc(F)c(F)c(F)c2)cc1` [Compound I-0033], in test [1] (class symbols), the EC50 was under 1 µM. Also, the IC50 in test [2] (given as class symbols) is 1 to 10 µM; in test [2] (RapidFire MS) it was 5.6 µM.
The compound `COc1ccc(Nc2nc(=O)n(-c3cncc(C)c3)c(=O)n2Cc2ccc(F)c(C#N)c2)c(F)c1` [II-0180] registered a half-maximal effective concentration (EC50) in test [1] (class symbols) of under 1 µM. Besides, in test [2] (given as class symbols), the IC50 was under 0.1 µM.
`Cc1cncc(-n2c(=O)nc(Nc3ccc4nn(C)cc4c3)n(Cc3cc(F)c(F)cc3F)c2=O)c1` [II-0111] returned an EC50 in test [1] (CellTiter-Glo 2.0) of 1.91 µM. Further, in test [2] (RapidFire MS), the IC50 turned out to be 0.078 µM.
The corresponding values for `COC(=O)c1cncc(-n2c(=O)nc(Nc3cc4cn(C)nc4cc3Cl)n(Cc3cc(F)c(F)c(F)c3)c2=O)c1` [II-0275] are 7.28 µM and 0.36 µM.
`Cc1cncc(-n2c(=O)nc(Nc3cc4cn(C)nc4cc3Cl)n(Cc3cc(Cl)ccc3C(F)(F)F)c2=O)c1` [II-0077]: the EC50 in test [1] (class symbols) is under 1 µM. Besides, in test [2] (given as class symbols), the 50% inhibitory concentration (IC50) is under 0.1 µM.
In test [1] (class symbols), `Cc1cncc(-n2c(=O)nc(Nc3cc4cn(C)nc4cc3Cl)n(Cc3cc(C#N)c(F)cc3OCC(C)C)c2=O)c1` [II-0071] returned a concentration for a half-maximal effect (EC50) of under 1 µM. The 50% inhibitory concentration (IC50) in test [2] (given as class symbols) is under 0.1 µM.
The like results for `Cn1cnc(Cn2c(=O)nc(Nc3cc4cn(CC(F)F)nc4cc3F)n(Cc3cc(F)c(F)c(Cl)c3)c2=O)n1` [II-0466] were, in that order, 1 to 10 µM and under 0.1 µM.
In test [1] (CellTiter-Glo 2.0), `COc1ccc(Nc2nc(=O)n(-c3cnc4sccn34)c(=O)n2Cc2cc(F)c(F)c(F)c2)cc1` [II-0393] came in with a concentration for a half-maximal effect (EC50) of 6.08 µM. The 50% inhibitory concentration (IC50) in test [2] (RapidFire MS) turned out to be 3.1 µM.
Regarding `COC(=O)Nc1nc2cc(Cl)c(Nc3nc(=O)n(Cc4ncn(C)n4)c(=O)n3Cc3cc(F)c(F)cc3F)cc2s1` [II-0075], the half-maximal effective concentration (EC50) in test [1] (class symbols) was under 1 µM. In addition, in test [2] (given as class symbols), the IC50 was under 0.1 µM.
In the case of `Cc1cncc(-n2c(=O)nc(Nc3cc4cn(C)nc4cc3Cl)n(Cc3cc(F)c(F)cc3C)c2=O)c1` [II-0403], in test [1] (class symbols), the EC50 is under 1 µM. The half-inhibitory concentration (IC50) in test [2] (given as class symbols) was under 0.1 µM.
The like results for `CNc1nc2ccc(Nc3nc(=O)n(-c4cncc(C)c4)c(=O)n3Cc3ccc(F)c(C#N)c3)cc2s1` [II-0313] were, in that order, under 1 µM and under 0.1 µM.
The like results for `CC(C)Nc1nc2cc(Cl)c(Nc3nc(=O)n(Cc4ccc[nH]c4=O)c(=O)n3Cc3cc(F)c(F)c(F)c3)cc2s1` [II-0413] were, in that order, 1 to 10 µM and under 0.1 µM.
The corresponding values for `Cn1cc2cc(Nc3nc(=O)n(-c4cncc5ccccc45)c(=O)n3Cc3cc(F)c(F)c(F)c3)c(Cl)cc2n1` [Compound I-0378] are under 1 µM and under 0.1 µM.
`COc1ccc(Nc2nc(=O)n(-c3cncc(C)c3)c(=O)n2Cc2ccc(F)c(C#N)c2)c(Br)c1` [II-0174] displayed a half-maximal effective concentration (EC50) in test [1] (class symbols) of under 1 µM. The IC50 in test [2] (given as class symbols) is under 0.1 µM.
Turning to `O=c1[nH]cc(Cn2c(=O)nc(Nc3cc4c(cc3Cl)OCC4)n(Cc3cc(F)c(F)c(F)c3)c2=O)c(=O)[nH]1` [Compound I-0406], the concentration for a half-maximal effect (EC50) in test [1] (class symbols) lay in the range of 1 to 10 µM. Moreover, the IC50 in test [2] (given as class symbols) is under 0.1 µM.
`N#Cc1cnc2[nH]c(=O)c(Cn3c(=O)nc(Nc4ccc5c(c4)CCO5)n(Cc4cc(F)c(F)c(F)c4)c3=O)cc2c1` [II-0322]: in test [1] (class symbols), the 50% effective concentration (EC50) fell in the range of 1 to 10 µM. Further, the IC50 in test [2] (given as class symbols) was under 0.1 µM.
The like results for `Cc1cncc(-n2c(=O)nc(Nc3cc4cn(C)nc4cc3Cl)n(Cc3ccc(F)cc3Br)c2=O)c1` [II-0220] were, in that order, 1 to 10 µM and under 0.1 µM.
As for `CCNc1nc2cc(Cl)c(Nc3nc(=O)n(Cc4ncn(C)n4)c(=O)n3Cc3cc(F)c(F)cc3F)cc2s1` [II-0339], the EC50 in test [1] (class symbols) is under 1 µM. For the same compound, the half-inhibitory concentration (IC50) in test [2] (given as class symbols) is under 0.1 µM.
The corresponding values for `O=c1[nH]cccc1Cn1c(=O)nc(Nc2ccc(O)cc2Cl)n(Cc2cc(F)c(F)c(F)c2)c1=O` [Compound I-0330] are 1 to 10 µM and under 0.1 µM.
Compound `Cn1cnc(Cn2c(=O)nc(Nc3cc4cn(C)nc4cc3Cl)n(Cc3cc(F)cc(F)c3)c2=O)n1` [II-0207] showed a concentration giving a half-maximal response (EC50) in test [1] (class symbols) of 1 to 10 µM. In addition, in test [2] (given as class symbols), the half-inhibitory concentration (IC50) is under 0.1 µM.
For `Cc1cncc(-n2c(=O)nc(Nc3cc4cn(CCO)nc4cc3Cl)n(Cc3ccc(F)c(C#N)c3)c2=O)c1` [II-0140], the EC50 in test [1] (class symbols) fell in the range of 1 to 10 µM. Also, the IC50 in test [2] (given as class symbols) is under 0.1 µM.

In general, EC50 refers to the concentration needed to bring the measured effect to its halfway point. Lower therefore signals higher potency in that assay. By IC50 is commonly meant the concentration that gives 50% inhibition.
